Experiment [1] relates to LPS-stimulated PBMC TNFα release. As to the kind of experiment: LPS-stimulated PBMC TNFα release assay. Particulars: human PBMCs, LPS 10 ng/ml, 18 h, TNFα by ELISA, at least three separate experiments, read-out: p38α inhibition (IC50 values), inhibition of TNFα release. Format: cell-based. As to the method: LPS-Stimulated PBMC TNFα Release Assay.
Peripheral Blood Mononuclear Cells (PBMCs) were isolated from healthy human volunteer blood using a standard density gradient centrifugation technique. Citrated blood was placed onto Histopaque™ and centrifuged. The PBMCs were removed from the density gradient interface and washed in phosphate buffered saline (PBS). The PBMCs were suspended in RPMI 1640 medium (without serum), dispensed into a 96-well plate and incubated at 37° C. for 3 h in a humidified incubator. After incubation, the medium was replaced (with medium containing 1% foetal bovine serum), and the plate incubated at 37° C., for 1 h, in the presence of test compound or the appropriate vehicle. LPS (10 ng/ml), or an appropriate vehicle control, was then added to the cells, and the plate returned to the incubator for 18 h. Cell-free supernatants were removed and assayed for TNFα levels using an ELISA kit from R&D Systems.
A dose response curve to each test compound was performed and the effect of compound in each experiment was expressed as a percentage inhibition of the control TNFα release. Dose response curves were plotted and compound potency (IC50) was determined. Compounds were tested in at least three separate experiments.
On the technique in general: In an ELISA, binding on a coated surface is turned into a signal by an enzyme label.

In another experiment the target is T1, p38alpha (Homo sapiens, UniProt Q16539).
T1 construct: purchased Invitrogen PV3304
As to the kind of experiment: P38alpha enzyme inhibition assay (Alphascreen kinase activity assay). Format: biochemical. The conditions noted are these: 100 pM p38alpha, 250 μM ATP, 2 hours pre-incubation at 25° C., ATF-2 fusion protein substrate; read-out: p38α inhibition (IC50 values). As to the method:
P38alpha Enzyme Inhibition Assay.
The inhibitory activity of compounds was determined using an Alphascreen® (Perkin Elmer) based kinase activity assay. Kinase reactions consisted of 25 mM HEPES pH 7.5, 10 mM MgCl2, 100 μM Na3VO4, 2 mM DTT, 0.05 mg/ml Tween 20, 100 pM p38alpha (Invitrogen, PV3304), 1% DMSO and 0.3 μg/ml ATF-2 fusion protein (New England Biolabs, 9224). Compounds were incubated under these conditions for 2 hours, at 25° C., prior to the initiation of the kinase activity by the addition of the 250 μM ATP. Reaction volumes were 20 uL. After 1 hr at 25° C. reactions were stopped by the adding 10 uL of 25 mM HEPES pH 7.5 containing 62.5 mM EDTA, 0.05% Triton X-100, 10% BSA and 0.83 ng/uL anti-phospho-ATF2 antibody (Abeam, ab28812). Detection was performed by measuring luminescence following the addition of Alphascreen Donor beads (Perkin Elmer 6765300) and Protein A Alphascreen Acceptor beads (Perkin Elmer 6760137), both at a final concentration of 20 ug/ml. IC50 values were determined from concentration-response curves.
(Alpha assays give light when donor and acceptor beads are brought close together.)

Where a name gives a salt, the structure may show the parent alone. Where only a bound is given, the exact number is not on record here.

T1 sequence (Q16539 whole entry): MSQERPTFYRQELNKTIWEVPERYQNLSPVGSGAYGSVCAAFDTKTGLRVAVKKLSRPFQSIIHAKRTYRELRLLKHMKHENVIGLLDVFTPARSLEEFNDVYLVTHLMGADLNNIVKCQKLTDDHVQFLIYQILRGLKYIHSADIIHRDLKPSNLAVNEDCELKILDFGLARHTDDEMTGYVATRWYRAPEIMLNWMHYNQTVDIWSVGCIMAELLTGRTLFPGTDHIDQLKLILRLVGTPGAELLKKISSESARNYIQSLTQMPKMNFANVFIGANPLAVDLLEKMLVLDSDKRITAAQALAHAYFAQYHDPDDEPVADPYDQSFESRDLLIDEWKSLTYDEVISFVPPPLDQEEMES

In general, IC50 refers to the midpoint of a concentration-inhibition curve. `CC(C)(C)c1cc(NC(=O)N[C@H]2CC[C@@H](Oc3ccc4nnc(C5CCCCC5)n4c3)c3ccccc32)n(CCN2CCOCC2)n1` [Example 34, 1-[5-tert-Butyl-2-(2-morpholin-4-yl-ethyl)-2H-pyrazol-3-yl]-3-[(1S,4R)-4-(3-cyclohexyl-[1,2,4]triazolo[4,3-a]pyridin-6-yloxy)-1,2,3,4-tetrahydro-naphthalen-1-yl]-urea partial formate salt]: the concentration for half-maximal inhibition (IC50) (in experiment [1]; on p38alpha) was less than 10 nM throughout.
On to `CC(C)c1nnc2ccc(O[C@H]3CC[C@H](NC(=O)Nc4nnc(C(C)(C)C)o4)c4ccccc43)cn12` [Example 5, 1-(5-tert-Butyl-[1,3,4]oxadiazol-2-yl)-3-[(1S,4S)-4-(3-isopropyl-[1,2,4]triazolo[4,3-a]pyridin-6-yloxy)-1,2,3,4-tetrahydro-naphthalen-1-yl]-urea], for which the IC50 was 10 to 100 nM in experiment [1] and less than 10 nM at p38alpha.
Consider `CC(C)c1nnc2ccc(O[C@H]3CC[C@H](NC(=O)Nc4cc(C(C)(C)C)nn4-c4ccc(CO)cc4)c4ccccc43)cn12` [Example 15, 1-[5-tert-Butyl-2-(4-hydroxymethyl-phenyl)-2H-pyrazol-3-yl]-3-[(1S,4S)-4-(3-isopropyl-[1,2,4]triazolo[4,3-a]pyridin-6-yloxy)-1,2,3,4-tetrahydro-naphthalen-1-yl]-urea], for which the 50% inhibitory concentration (IC50) (in experiment [1]; on p38alpha) was less than 10 nM each time.
As for `CC(C)c1nnc2ccc(O[C@@H]3CC[C@H](NC(=O)Nc4cc(C(C)(C)C)nn4-c4cccc(SCCO)c4)c4ccccc43)cn12` [Example 3, 1-{5-tert-Butyl-2-[3-(2-hydroxyethylsulfanyl)-phenyl]-2H-pyrazol-3-yl}-3-[(1S,4R)-4-(3-isopropyl-[1,2,4]triazolo[4,3-a]pyridin-6-yloxy)-1,2,3,4-tetrahydro-naphthalen-1-yl]-urea], the IC50 (in experiment [1]; on p38alpha) was less than 10 nM throughout.
For `CC(C)c1nnc2ccc(O[C@H]3CC[C@H](NC(=O)Nc4ccc(Cl)c(C(F)(F)F)c4)c4ccccc43)cn12` [Example 7, 1-(4-Chloro-3-trifluoromethyl-phenyl)-3-[(1S,4S)-4-(3-isopropyl-[1,2,4]triazolo[4,3-a]pyridin-6-yloxy)-1,2,3,4-tetrahydro-naphthalen-1-yl]-urea], the 50% inhibitory concentration (IC50) (in experiment [1]; on p38alpha) was less than 10 nM throughout.
On to `CC(C)(C)c1cc(NC(=O)N[C@H]2CC[C@@H](Oc3ccc4nnc(-c5c(Cl)cccc5Cl)n4c3)c3ccccc32)n(CCN2CCCCC2)n1` [Example 29, 1-[5-tert-Butyl-2-(2-piperidin-1-yl-ethyl)-2H-pyrazol-3-yl]-3-{(1S,4R)-4-[3-(2,6-dichloro-phenyl)-[1,2,4]triazolo[4,3-a]pyridin-6-yloxy]-1,2,3,4-tetrahydro-naphthalen-1-yl}-urea formate salt], for which the IC50 (in experiment [1]; on p38alpha) was less than 10 nM throughout.
As for `CN(C)CCn1nc(C(C)(C)C)cc1NC(=O)N[C@H]1CC[C@@H](Oc2ccc3nnc(-c4c(Cl)cccc4Cl)n3c2)c2ccccc21` [Example 28, 1-[5-tert-Butyl-2-(2-dimethylamino-ethyl)-2H-pyrazol-3-yl]-3-{(1S,4R)-4-[3-(2,6-dichloro-phenyl)-[1,2,4]triazolo[4,3-a]pyridin-6-yloxy]-1,2,3,4-tetrahydro-naphthalen-1-yl}-urea formate salt], the IC50 (in experiment [1]; on p38alpha) was less than 10 nM each time.
As to `Cn1nc(C(C)(C)C)cc1NC(=O)N[C@H]1CC[C@@H](Oc2ccc3nnc(-c4c(Cl)cccc4Cl)n3c2)c2ccccc21` [Example 33, 1-(5-tert-Butyl-2-methyl-2H-pyrazol-3-yl)-3-{(1S,4R)-4-[3-(2,6-dichlorophenyl)-[1,2,4]triazolo[4,3-a]pyridin-6-yloxy]-1,2,3,4-tetrahydronaphthalen-1-yl]-urea], the half-maximal inhibitory concentration (IC50) (in experiment [1]; on p38alpha) was less than 10 nM in each case.
For `CC(C)c1nnc2ccc(O[C@H]3CC[C@H](NC(=O)Nc4cnn(C(C)(C)C)c4)c4ccccc43)cn12` [Example 9, 1-(1-tert-Butyl-1H-pyrazol-4-yl)-3-[(1S,4S)-4-(3-isopropyl-[1,2,4]triazolo[4,3-a]pyridin-6-yloxy)-1,2,3,4-tetrahydro-naphthalen-1-yl]-urea], the 50% inhibitory concentration (IC50) (in experiment [1]; at p38alpha) was less than 10 nM in each case.
Turning to `CC(C)c1nnc2ccc(O[C@@H]3CC[C@H](NC(=O)Nc4cc(C(C)(C)C)nn4CCN4CCOCC4)c4ccccc43)cn12` [Example 18, 1-[5-tert-Butyl-2-(2-morpholin-4-yl-ethyl)-2H-pyrazol-3-yl]-3-[(1S,4R)-4-(3-isopropyl[1,2,4]triazolo[4,3-a]pyridin-6-yloxy)-1,2,3,4-tetrahydro-naphthalen-1-yl]-urea], the IC50 in experiment [1] is 10 to 100 nM; on p38alpha it was less than 10 nM.
For `COc1ccc(-n2nc(C(C)(C)C)cc2NC(=O)N[C@H]2CC[C@@H](Oc3ccc4nnc(C(C)C)n4c3)c3ccccc32)cc1` [Example 1, 1-(5-tert-Butyl-2-(4-methoxy-phenyl)-2H-pyrazol-3-yl)-3-[(1S,4R)-4-(3-isopropyl-[1,2,4]triazolo[4,3-a]pyridin-6-yloxy)-1,2,3,4-tetrahydro-naphthalen-1-yl]-urea] the same measures were less than 10 nM and less than 10 nM.
For the molecule `CC(C)c1nnc2ccc(O[C@@H]3CC[C@H](NC(=O)Nc4cc(C(C)(C)C)nn4-c4cccc(OCCN5CCC(O)CC5)c4)c4ccccc43)cn12` [Example 22, 1-(5-tert-Butyl-2-{3-[2-(4-hydroxy-piperidin-1-yl)-ethoxy]-phenyl}-2H-pyrazol-3-yl)-3-[(1S,4R)-4-(3-isopropyl-[1,2,4]triazolo[4,3-a]pyridin-6-yloxy)-1,2,3,4-tetrahydro-naphthalen-1-yl]-urea formate salt], the 50% inhibitory concentration (IC50) in experiment [1] is 10 to 100 nM; on p38alpha it was less than 10 nM.
For `CC(C)c1nnc2ccc(O[C@@H]3CC[C@H](NC(=O)Nc4cc(C(C)(C)C)nn4C)c4ccccc43)cn12` [Example 2, 1-(5-tert-Butyl-2-methyl-2H-pyrazol-3-yl)-3-[(1S,4R)-4-(3-isopropyl-[1,2,4]triazolo[4,3-a]pyridin-6-yloxy)-1,2,3,4-tetrahydro-naphthalen-1-yl]-urea] the same measures were less than 10 nM and less than 10 nM.
For `CC(C)c1nnc2ccc(O[C@H]3CC[C@H](NC(=O)Nc4nc(C(C)(C)C)no4)c4ccccc43)cn12` [Example 8, 1-(3-tert-Butyl-[1,2,4]oxadiazol-5-yl)-3-[(1S,4S)-4-(3-isopropyl-[1,2,4]triazolo[4,3-a]pyridin-6-yloxy)-1,2,3,4-tetrahydro-naphthalen-1-yl]-urea] the same measures were less than 10 nM and less than 10 nM.
For `CN1CCN(CCn2nc(C(C)(C)C)cc2NC(=O)N[C@H]2CC[C@@H](Oc3ccc4nnc(-c5c(Cl)cccc5Cl)n4c3)c3ccccc32)CC1` [Example 30, 1-{5-tert-Butyl-2-[2-(4-methyl-piperazin-1-yl)-ethyl]-2H-pyrazol-3-yl}-3-{(1S,4R)-4-[3-(2,6-dichloro-phenyl)-[1,2,4]triazolo[4,3-a]pyridin-6-yloxy]-1,2,3,4-tetrahydro-naphthalen-1-yl}-urea formate salt] the same measures were less than 10 nM and less than 10 nM.
With `CC(C)c1nnc2ccc(O[C@@H]3CC[C@H](NC(=O)Nc4cc(C(C)(C)C)nn4-c4cccc(OCCO)c4)c4ccccc43)cn12` [Example 4, 1-{5-tert-Butyl-2-[3-(2-hydroxy-ethoxy)-phenyl]-2H-pyrazol-3-yl}-3-[(1S,4R)-4-(3-isopropyl-[1,2,4]triazolo[4,3-a]pyridin-6-yloxy)-1,2,3,4-tetrahydro-naphthalen-1-yl]-urea], the 50% inhibitory concentration (IC50) (in experiment [1]; on p38alpha) was less than 10 nM in each case.

The values are drawn from US9029373B2, “Kinase inhibitors” (Chiesi Farmaceutici S.p.A., priority 2011, dated 2015).
